According to US9856216B2, “Compounds as TNIK, IKKε and TBK1 inhibitors and pharmaceutical composition comprising same” (GREEN CROSS CORPORATION, priority 2015, dated 2018):

These compounds were tested against T1, TNIK (Homo sapiens, UniProt Q9UKE5) (assay: ADP-Glo Kinase Assay, inhibition activity on TNIK). Settings: not given.
T1 construct: purchased Promega V4158
Format: biochemical
Procedure: The inhibition activities on TNIK, IKKε and TBK1 were measured by a luminometer, TNIK/IKKε/TBK1 Kinase Enzyme System (Promega, Ca# V4158; Invitrogen, PR8031B, Promega, Ca# V3991) and ADP-Glo Kinase Assay using ADP-Glo™ Kinase Analysis Kit (Promega, Ca# V9101) and a kinase reaction buffer [40 mM Tris(pH 7.5), 20 mM MgCl2, 0.1 mg/mL BSA] in accordance with the manufacturer's protocol.

T1 sequence (Q9UKE5 1-367 limits assumed): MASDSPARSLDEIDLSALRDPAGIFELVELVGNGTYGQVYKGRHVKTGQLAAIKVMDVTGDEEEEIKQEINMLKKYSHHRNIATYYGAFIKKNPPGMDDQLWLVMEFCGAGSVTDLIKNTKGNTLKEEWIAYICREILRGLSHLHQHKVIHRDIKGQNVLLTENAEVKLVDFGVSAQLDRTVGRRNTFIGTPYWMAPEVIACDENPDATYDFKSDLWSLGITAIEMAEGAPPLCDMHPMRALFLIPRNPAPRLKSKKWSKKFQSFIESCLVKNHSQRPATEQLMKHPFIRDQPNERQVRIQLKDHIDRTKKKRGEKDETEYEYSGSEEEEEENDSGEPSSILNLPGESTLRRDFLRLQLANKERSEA

Row | TNIK (μM) | SMILES
1 | Insoluble | O=C(Nc1ccc(Nc2ccccn2)c2c1C(=O)NC2)c1ccc(F)cc1 [Example 428, 4-Fluoro-N-(3-oxo-7-(pyridin-2-ylamino)isoindolin-4-yl) benzamide]

Same assay, conditions: read-out: TNIK

Row | SMILES | IC50 [nM]
2 | O=C(Nc1ccc(Nc2cc(C(F)(F)F)cc(C(F)(F)F)c2)c2c1C(=O)NC2)c1ccc(F)cc1 [Example 423, N-(7-((3,5-bis(trifluoromethyl)phenyl)amino)-3-oxoisoindolin-4-yl)-4-fluorobenzamide] | > 20000
3 | Cc1cccc(Nc2ccc(NC(=O)c3ccc(F)cc3)c3c2CNC3=O)c1C [Example 424, N-(7-((2,3-dimethylphenyl)amino)-3-oxoisoindolin-4-yl)-4-fluorobenzamide] | 1350
4 | COc1ccccc1Nc1ccc(NC(=O)c2ccc(F)cc2)c2c1CNC2=O [Example 425, 4-Fluoro-N-(7-((2-methoxyphenyl)amino)-3-oxoisoindolin-4-yl)benzamide] | 840
5 | Cc1ccccc1Nc1ccc(NC(=O)c2ccc(F)cc2)c2c1CNC2=O [Example 426, 4-Fluoro-N-(3-oxo-7-(o-tolylamino)isoindolin-4-yl)benzamide] | 1260
6 | O=C(Nc1ccc(Nc2cccnc2)c2c1C(=O)NC2)c1ccc(F)cc1 [Example 427, 4-Fluoro-N-(3-oxo-7-(pyridin-3-ylamino)isoindolin-4-yl) benzamide] | 620
7 | O=C(Nc1ccc(Nc2cnccn2)c2c1C(=O)NC2)c1ccc(F)cc1 [Example 429, 4-Fluoro-N-(3-oxo-7-(pyrazin-2-ylamino)isoindolin-4-yl) benzamide] | 530
8 | Cn1cc(Nc2ccc(NC(=O)c3ccc(F)cc3)c3c2CNC3=O)cn1 [Example 430] | 6470
9 | COc1cccc(Nc2ccc(NC(=O)c3ccccc3)c3c2CNC3=O)c1 [Example 431, N-(7-((3-methoxyphenyl)amino)-3-oxoisoindolin-4-yl) benzamide] | 940
10 | COc1ccccc1C(=O)Nc1ccc(Nc2ccccc2)c2c1C(=O)NC2 [Example 432, 2-Methoxy-N-(3-oxo-7-(phenylamino)isoindolin-4-yl) benzamide] | 12200
11 | COc1cccc(C(=O)Nc2ccc(Nc3ccccc3)c3c2C(=O)NC3)c1 [Example 434, 3-Methoxy-N-(3-oxo-7-(phenylamino)isoindolin-4-yl) benzamide] | 670
12 | Cc1cccc(Nc2ccc(NC(=O)c3ccccc3)c3c2CNC3=O)c1 [Example 436, N-(3-oxo-7-(m-tolylamino)isoindolin-4-yl)benzamide] | 590
13 | O=C(Nc1ccc(Nc2cc[nH]n2)c2c1C(=O)NC2)c1ccc(F)cc1 [Example 437] | 2900
14 | COc1cccc(Nc2ccc(NC(=O)c3ccc(NCCN4CCCC4)cc3)c3c2CNC3=O)c1 [Example 445, N-(7-((3-methoxyphenyl)amino)-3-oxoisoindolin-4-yl)-4-((2-(pyrrolidin-1-yl)ethyl)amino)benzamide] | 550
15 | COc1cccc(Nc2ccc(NC(=O)c3ccc(NCCN4CCCCC4)cc3)c3c2CNC3=O)c1 [Example 446, N-(7-((3-methoxyphenyl)amino)-3-oxoisoindolin-4-yl)-4-((2-(piperidin-1-yl)ethyl)amino)benzamide] | 630
16 | COc1cccc(Nc2ccc(NC(=O)c3ccc(NCCCN4CCCC4)cc3)c3c2CNC3=O)c1 [Example 447, N-(7-((3-methoxyphenyl)amino)-3-oxoisoindolin-4-yl)-4-((3-(pyrrolidin-1-yl)propyl)amino)benzamide] | 550
17 | COc1cccc(Nc2ccc(NC(=O)c3ccc(NCCCN4CCCCC4)cc3)c3c2CNC3=O)c1 [Example 448] | 620
18 | Cc1cccc(Nc2ccc(NC(=O)c3ccc(NCCN4CCCC4)cc3)c3c2CNC3=O)c1 [Example 449, N-(3-oxo-7-(m-tolylamino)isoindolin-4-yl)-4-((2-(pyrrolidin-1-yl)ethyl)amino)benzamide] | 590
19 | Cc1cccc(Nc2ccc(NC(=O)c3ccc(NCCN4CCCCC4)cc3)c3c2CNC3=O)c1 [Example 450, N-(3-oxo-7-(m-tolylamino)isoindolin-4-yl)-4-((2-(piperidin-1-yl)ethyl)amino)benzamide] | 580
20 | O=C(Nc1ccc(Nc2ccccc2Cl)c2c1C(=O)NC2)c1ccc(NCCN2CCCCC2)cc1 [Example 454, N-(7-((2-chlorophenyl)amino)-3-oxoisoindolin-4-yl)-4-((2-(piperidin-1-yl)ethyl)amino)benzamide] | 530

The remaining lines, values ahead:

Row | IC50 [nM] | SMILES
21 | 400 | COc1ccc(C(=O)Nc2ccc(Nc3ccccc3)c3c2C(=O)NC3)cc1 [Example 433, 4-Methoxy-N-(3-oxo-7-(phenylamino)isoindolin-4-yl) benzamide]
22 | 210 | CC(=O)Nc1ccc(C(=O)Nc2ccc(Nc3ccccc3)c3c2C(=O)NC3)cc1 [Example 435, 4-Acetamido-N-(3-oxo-7-(phenylamino)isoindolin-4-yl) benzamide]
23 | 160 | O=C(Nc1ccc(Nc2ccccc2)c2c1C(=O)NC2)c1ccc(NCCN2CCCC2)cc1 [Example 438, N-(3-oxo-7-(phenylamino)isoindolin-4-yl)-4-((2-(pyrrolidin-1-yl)ethyl)amino)benzamide]
24 | 150 | O=C(Nc1ccc(Nc2ccccc2)c2c1C(=O)NC2)c1ccc(NCCN2CCCCC2)cc1 [Example 439, N-(3-oxo-7-(phenylamino)isoindolin-4-yl)-4-((2-(piperidin-1-yl)ethyl)amino)benzamide]
25 | 240 | CN(C)CCNc1ccc(C(=O)Nc2ccc(Nc3ccccc3)c3c2C(=O)NC3)cc1 [Example 441]
26 | 150 | O=C(Nc1ccc(Nc2ccccc2)c2c1C(=O)NC2)c1ccc(NCCN2CCOCC2)cc1 [Example 442, 4-((2-Morpholinoethyl)amino)-N-(3-oxo-7-(phenylamino)isoindolin-4-yl)benzamide]
27 | 120 | CN1CCN(CCNc2ccc(C(=O)Nc3ccc(Nc4ccccc4)c4c3C(=O)NC4)cc2)CC1 [Example 443, 4-((2-(4-Methylpiperazin-1-yl)ethyl)amino)-N-(3-oxo-7-(phenylamino)isoindolin-4-yl)benzamide]
28 | 110 | COCCNc1ccc(C(=O)Nc2ccc(Nc3ccccc3)c3c2C(=O)NC3)cc1 [Example 444, 4-((2-Methoxyethyl)amino)-N-(3-oxo-7-(phenylamino)isoindolin-4-yl)benzamide]
29 | 480 | Cc1cccc(Nc2ccc(NC(=O)c3ccc(NCCCN4CCCC4)cc3)c3c2CNC3=O)c1 [Example 451, N-(3-oxo-7-(m-tolylamino)isoindolin-4-yl)-4-((3-(pyrrolidin-1-yl)propyl)amino)benzamide]
30 | 440 | Cc1cccc(Nc2ccc(NC(=O)c3ccc(NCCCN4CCCCC4)cc3)c3c2CNC3=O)c1 [Example 452, N-(3-oxo-7-(m-tolylamino)isoindolin-4-yl)-4-((3-(piperidin-1-yl)propyl)amino)benzamide]
31 | 510 | O=C(Nc1ccc(Nc2ccccc2Cl)c2c1C(=O)NC2)c1ccc(NCCN2CCCC2)cc1 [Example 453, N-(7-((2-chlorophenyl)amino)-3-oxoisoindolin-4-yl)-4-((2-(pyrrolidin-1-yl)ethyl)amino)benzamide]
32 | 200 | O=C(Nc1ccc(Nc2cccc(Cl)c2)c2c1C(=O)NC2)c1ccc(NCCN2CCCC2)cc1 [Example 455, N-(7-((3-chlorophenyl)amino)-3-oxoisoindolin-4-yl)-4-((2-(pyrrolidin-1-yl)ethyl)amino)benzamide]
